In ChEMBL document CHEMBL1150967, “Two new diterpene glycosides from the soft coral lemnalia bournei” (J Nat Prod, 1998):
In brackets after ≈: the same amount, converted by molar mass.

Columns and labels:
Type in all cases: functional, cell-based
[1] = Cytotoxicity against human HepA cells
[2] = Cytotoxicity against mouse S180A cells
[3] = Cytotoxicity against mouse EAC cells; conditions: Ehrlich

Structure (SMILES)	IC50 [1]	IC50 [2]	IC50 [3]
CC(=O)O[C@@H]1[C@@H](O)[C@@H]2O[C@@H]([C@H](C)CCC[C@H](C)[C@@H]3CC=C(C)[C@H]4CCC(C)=C[C@@H]34)OC[C@@H](O2)[C@H]1O [LEMNABOURSIDE B]	33.5 µg/mL (≈ 68 µM)	40 µg/mL (≈ 81.2 µM)	73.3 µg/mL (≈ 149 µM)
CC(=O)O[C@H]1[C@H](O)[C@@H](O)[C@@H]2O[C@@H]([C@H](C)CCC[C@H](C)[C@@H]3CC=C(C)[C@H]4CCC(C)=C[C@@H]34)OC[C@H]1O2 [LEMNABOURSIDE C]	41.4 µg/mL (≈ 84 µM)	187 µg/mL (≈ 379 µM)	40.5 µg/mL (≈ 82.2 µM)
CC1=C[C@H]2[C@H]([C@H](C)CCC[C@@H](C)C3OC[C@H]4O[C@@H](O3)[C@H](O)[C@@H](O)[C@@H]4O)CC=C(C)[C@H]2CC1 (some centres undefined) [LEMNABOURSIDE]	31.6 µg/mL (≈ 70.1 µM)	27.4 µg/mL (≈ 60.8 µM)	97.8 µg/mL (≈ 217 µM)
